# Counter-ions that a name gives are not always drawn.
# Experiments:
# [1] = target: BRD4-BD1 (Homo sapiens (Human), UniProt O60885); assay: BRD4 AlphaScreen assay, BRD4-BD1; format: binding; details: H4Ac4 peptide, 75 min, room temperature, read-out: BRD4 BD-1 enzyme IC50
# Description: (§1) BRD4-BD1 and BRD4-BD2 assays were conducted in white 384-well polystyrene plate in a final volume of 20 μL for BD1 and 40 μL for BD2. Inhibitors were first serially diluted in DMSO and added to the plate wells before the addition of other reaction components. […] After plate sealing, the plate was incubated in the dark at room temperature for 75 min. before reading on a PHERAstar FS plate reader (BMG Labtech). IC50 determination was performed by fitting the curve of percent control activity versus the log of the inhibitor concentration using the GraphPad Prism 5.0 software.
# [2] = target: BRD4-BD2 (Homo sapiens (Human), UniProt O60885); assay: BRD4 AlphaScreen assay, BRD4-BD2; format: binding; details: H4Ac4 peptide, 75 min, room temperature, read-out: BRD4 BD-2 enzyme IC50
# Description: as §1
# [3] = system: KMS.12.BM cells; assay: KMS.12.BM cell viability assay (Cell Titer-GLO, ATP quantitation); format: cell-based; details: Homo sapiens, 72 h, 3 days, concentration required for 50% cell death, read-out: KMS cellular IC50
# Description: KMS.12.BM cell line (human myeloma) was purchased from JCRB (Osaka, Japan) and maintained in RPMI with 10% FBS culture medium. To measure the cytotoxic activity of the compounds through ATP quantitation, the KMS.12.BM cells are plated in the RPMI culture medium at 5000 cells/well/per 100 μL into a 96-well polystyrene clear black tissue culture plate (Greiner-bio-one through VWR, NJ), in the presence or absence of a concentration range of test compounds. After 3 days, […] Cell Titer-GLO Luminescent (Promega, Madison, Wis.) cell culture agent is added to each well for 10 minutes at room temperature to stabilize the luminescent signal. This determines the number of viable cells in culture based on quantitation of the ATP present, which signals the presence of metabolically active cells. Luminescence is measured with the Top Count 384 (Packard Bioscience through Perkin Elmer, Boston, Mass.). Compound inhibition is determined relative to cells cultured with no drug and the IC50 is reported as the compound concentration required for 50% cell death. IC50 data for the Examples is presented in Table 9 as determined by Assay B1.
SMILES,IC50 [1] [nM],IC50 [2] [nM],IC50 [3] [nM]
"Cn1cc(-c2ccc3c(c2Oc2ccccc2)N(CCN2CCOCC2)C(=O)CO3)c2cc[nH]c2c1=O [Example 102, 6-(6-Methyl-7-oxo-6,7-dihydro-1H-pyrrolo[2,3-c]pyridin-4-yl)-4-(2-morpholin-4-ylethyl)-5-phenoxy-2H-1,4-benzoxazin-3(4H)-one trifluoroacetate]",100 to 1000,< 100,–
"C[C@@H]1CN(CCn2c(NCC3CC3)nc3c(Oc4ccccc4)c(-c4cn(C)c(=O)c5[nH]ccc45)ccc32)C[C@H](C)O1 [Example 72, 4-(2-[(Cyclopropylmethyl)amino]-1-{2-[(2R,6S)-2,6-dimethylmorpholin-4-yl]ethyl}-4-phenoxy-1H-benzimidazol-5-yl)-6-methyl-1,6-dihydro-7H-pyrrolo[2,3-c]pyridin-7-one trifluoroacetate]",100 to 1000,< 100,1000 to 10000
"Cn1cnc2c(Oc3ccc(F)cc3F)c(-c3cn(CC#N)c(=O)c4[nH]ccc34)ccc21 [Example 85, {4-[4-(2,4-Difluorophenoxy)-1-methyl-1H-benzimidazol-5-yl]-7-oxo-1,7-dihydro-6H-pyrrolo[2,3-c]pyridin-6-yl}acetonitrile trifluoroacetate]",1000 to 10000,100 to 1000,–
"Cn1cc(-c2cc(CNCCN3CCOCC3)c3[nH]c(=O)[nH]c3c2Oc2ccc(F)cc2F)c2cc[nH]c2c1=O [Example 79, 4-(2,4-Difluorophenoxy)-5-(6-methyl-7-oxo-6,7-dihydro-1H-pyrrolo[2,3-c]pyridin-4-yl)-7-{[(2-morpholin-4-ylethyl)amino]methyl}-1,3-dihydro-2H-benzimidazol-2-one]",100 to 1000,< 100,1000 to 10000
"Cn1cc(-c2ccc3c(c2Oc2ccccc2)N(Cc2ccccc2)C(=O)CO3)c2cc[nH]c2c1=O [Example 101, 4-Benzyl-6-(6-methyl-7-oxo-6,7-dihydro-1H-pyrrolo[2,3-c]pyridin-4-yl)-5-phenoxy-2H-1,4-benzoxazin-3(4H)-one]",100 to 1000,100 to 1000,–
"Cn1cc(-c2ccc3c(c2Oc2ccccc2)NC(c2ccccc2)CO3)c2cc[nH]c2c1=O (centres unmarked) [Example 110, 6-Methyl-4-(5-phenoxy-3-phenyl-3,4-dihydro-2H-1,4-benzoxazin-6-yl)-1,6-dihydro-7H-pyrrolo[2,3-c]pyridin-7-one]",100 to 1000,< 100,–
"COc1c(-c2cn(C)c(=O)c3[nH]ccc23)ccc2c1n(CCN1CCOCC1)c(=O)n2C [Example 50, 4-Methoxy-1-methyl-5-(6-methyl-7-oxo-6,7-dihydro-1H-pyrrolo[2,3-c]pyridin-4-yl)-3-(2-morpholin-4-ylethyl)-1,3-dihydro-2H-benzimidazol-2-one]",100 to 1000,< 100,–
"C[C@@H]1CN(CCn2c(NCc3ccccc3)nc3c(Oc4ccccc4)c(-c4cn(C)c(=O)c5[nH]ccc45)ccc32)C[C@H](C)O1 [Example 71, 4-(2-(Benzylamino)-1-{2-[(2R,6S)-2,6-dimethylmorpholin-4-yl]ethyl}-4-phenoxy-1H-benzimidazol-5-yl)-6-methyl-1,6-dihydro-7H-pyrrolo[2,3-c]pyridin-7-one trifluoroacetate]",1000 to 10000,1000 to 10000,–
"CCS(=O)(=O)c1c(-c2cn(C)c(=O)c3[nH]ccc23)ccc2c1[nH]c(=O)n2C [Example 99, 4-(Ethylsulfonyl)-1-methyl-5-(6-methyl-7-oxo-6,7-dihydro-1H-pyrrolo[2,3-c]pyridin-4-yl)-1,3-dihydro-2H-benzimidazol-2-one]",1000 to 10000,100 to 1000,–
"Cn1cnc2c(Oc3ccc(F)cc3F)c(-c3cn(Cc4ccccc4)c(=O)c4[nH]ccc34)ccc21 [Example 84, 6-Benzyl-4-[4-(2,4-difluorophenoxy)-1-methyl-1H-benzimidazol-5-yl]-1,6-dihydro-7H-pyrrolo[2,3-c]pyridin-7-one trifluoroacetate]",1000 to 10000,100 to 1000,–
"CCOc1c(-c2cn(C)c(=O)c3[nH]ccc23)c(C)nc2cc(C)nn12 [Example 73, 4-(7-Ethoxy-2,5-dimethylpyrazolo[1,5-a]pyrimidin-6-yl)-6-methyl-1,6-dihydro-7H-pyrrolo[2,3-c]pyridin-7-one]",1000 to 10000,100 to 1000,–

# Further lines, with some results ahead:
IC50 [1] [nM],IC50 [2] [nM],SMILES,IC50 [3] [nM]
100 to 1000,100 to 1000,"Cn1cnc2c(Oc3ccc(F)cc3F)c(-c3c[nH]c(=O)c4[nH]ccc34)ccc21 [Example 82, 4-[4-(2,4-Difluorophenoxy)-1-methyl-1H-benzimidazol-5-yl]-1,6-dihydro-7H-pyrrolo[2,3-c]pyridin-7-one]",–
< 100,< 100,"Cn1cc(-c2ccc3c(nc(CNC(=O)C4CCC4)n3C)c2Oc2ccccc2)c2cc[nH]c2c1=O [Example 111, N-{[1-Methyl-5-(6-methyl-7-oxo-6,7-dihydro-1H-pyrrolo[2,3-c]pyridin-4-yl)-4-phenoxy-1H-benzimidazol-2-yl]methyl}cyclobutanecarboxamide]",≤ 1000
< 100,< 100,"Cn1cc(-c2ccc3c(c2Oc2ccccc2)NC(=O)C(C)(C)O3)c2cc[nH]c2c1=O [Example 95, 2,2-Dimethyl-6-(6-methyl-7-oxo-6,7-dihydro-1H-pyrrolo[2,3-c]pyridin-4-yl)-5-phenoxy-2H-1,4-benzoxazin-3(4H)-one]",≤ 1000
< 100,< 100,"CN(C)C(=O)Cn1cnc2ccc(-c3cn(C)c(=O)c4[nH]ccc34)c(Oc3ccc(F)cc3F)c21 [Example 33, 2-[7-(2,4-Difluorophenoxy)-6-(6-methyl-7-oxo-6,7-dihydro-1H-pyrrolo[2,3-c]pyridin-4-yl)-1H-benzimidazol-1-yl]-N,N-dimethylacetamide]",≤ 1000
< 100,< 100,"Cn1cc(-c2ccc3c(c2OCC2CCC2)n(CCc2ccccc2)c(=O)n3C)c2cc[nH]c2c1=O [Example 63, 4-(Cyclobutylmethoxy)-1-methyl-5-(6-methyl-7-oxo-6,7-dihydro-1H-pyrrolo[2,3-c]pyridin-4-yl)-3-(2-phenylethyl)-1,3-dihydro-2H-benzimidazol-2-one]",≤ 1000
< 100,< 100,"Cn1cc(-c2ccc3[nH]c(=O)[nH]c3c2OC2CCC(F)(F)CC2)c2cc[nH]c2c1=O [Example 23, 4-[(4,4-Difluorocyclohexyl)oxy]-5-(6-methyl-7-oxo-6,7-dihydro-1H-pyrrolo[2,3-c]pyridin-4-yl)-1,3-dihydro-2H-benzimidazol-2-one]",≤ 1000
< 100,< 100,"COc1c(-c2cn(C)c(=O)c3[nH]ccc23)ccc2c1n(Cc1ccccc1)c(=O)n2C [Example 44, 3-Benzyl-4-methoxy-1-methyl-5-(6-methyl-7-oxo-6,7-dihydro-1H-pyrrolo[2,3-c]pyridin-4-yl)-1,3-dihydro-2H-benzimidazol-2-one]",≤ 1000
< 100,< 100,"Cn1cc(-c2ccc3c(c2OCC2CCC2)n(CCN2CCN(S(C)(=O)=O)CC2)c(=O)n3C)c2cc[nH]c2c1=O [Example 67, 4-(Cyclobutylmethoxy)-1-methyl-5-(6-methyl-7-oxo-6,7-dihydro-1H-pyrrolo[2,3-c]pyridin-4-yl)-3-{2-[4-(methylsulfonyl)piperazin-1-yl]ethyl}-1,3-dihydro-2H-benzimidazol-2-one]",≤ 1000

# From patent US9918990B2, “Substituted pyrrolo[2,3-c]pyridines and pyrazolo[3,4-c]pyridines as BET protein inhibitors” (Incyte Corporation, priority 2013, dated 2018)
